Where a SMILES comes first, the peptide text is derived from it. [ ]: non-standard residue; d: D form. The star is where a group is joined. NHCH2CH2OH = OCCN*; For = O=C*
Tests used:
[1] = cell viability/%
Procedure, shortened: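 P388 cells at 1 × 10^4 cells/mL (final) were exposed to library peptides (stocks diluted 250-fold in RPMI1640/10% FBS) for 92 h at 37 °C, 5% CO2. Viable cells were counted by WST-1/1-methoxy PMS (4 h), absorbance 415 nm, and expressed as cell viability (%).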

[2] = system: Streptococcus pyogenes SSI-9; assay: Antibacterial activity assay of bead-derived peptides (three concentrations); format: cell-based; parameters: key: +++: inhibition by the 640-fold diluted peptide solution; ++: inhibition by the 160-fold diluted solution; +: inhibition by the 40-fold diluted solution; -: no inhibition; conditions: S. pyogenes, bead-derived peptide solution, three concentrations
Procedure, shortened: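 Library peptide stock applied undiluted, 4-fold and 16-fold diluted in DMSO to S. pyogenes SSI-9 (2 × 10^5 CFU) in cation-adjusted Mueller Hinton broth with 5% laked horse blood. After 18 h at 37 °C, growth judged by visible cell precipitation.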

[3] = H+/Na+ transport assay of bead-derived peptides (one-point); format: biochemical; parameters: key: relative activity; mean of two control wells = 1.00; conditions: bead-derived peptide solution, EYPC/EYPG LUVs;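 further: relative to parent gramicidin A activity set to 1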
Procedure, shortened: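 Miniaturized 96-well format. LUVs with entrapped pyranine (1.0 mM) were exposed to peptide for 30 min at RT. Intensities were expressed relative to full lysis by Triton X-100 and no treatment, with control-well mean = 1.00.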

| Compound | viability [1] [%] | antibacterial activity [2] | H+/Na+ transport activity normalized against the value of 1 (1.00) [3] |
| --- | --- | --- | --- |
| CC(C)C[C@@H](NC(=O)[C@H](C)NC(=O)CNC(=O)[C@@H](NC=O)C(C)C)C(=O)N[C@@H](C)C(=O)N[C@H](CC(C)C)C(=O)N[C@H](C(=O)N[C@@H](C(=O)N[C@@H](Cc1c[nH]c2ccccc12)C(=O)N[C@@H](C(=O)N[C@@H](Cc1c[nH]c2ccccc12)C(=O)N[C@@H](C(=O)N[C@@H](Cc1c[nH]c2ccccc12)C(=O)N[C@H](CC(C)C)C(=O)N[C@@H](Cc1c[nH]c2ccccc12)C(=O)NCCO)C(C)C)[C@H](C)O)[C@H](C)O)C(C)C [compound 3782] (For-VGA[dL]A[dL]V[dT]W[dT]W[dV]W[dL]W-NHCH2CH2OH) | 100 | - | 1.12 |
| CC(C)C[C@@H](NC(=O)[C@H](Cc1c[nH]c2ccccc12)NC(=O)[C@@H](CC(C)C)NC(=O)[C@H](Cc1c[nH]c2ccccc12)NC(=O)[C@@H](CC(C)C)NC(=O)[C@H](Cc1c[nH]c2ccccc12)NC(=O)[C@H](NC(=O)[C@@H](NC(=O)[C@H](NC(=O)[C@H](C)NC(=O)[C@H](NC(=O)[C@H](C)NC(=O)CNC(=O)[C@@H](NC=O)C(C)C)[C@H](C)O)C(C)C)C(C)C)C(C)C)C(=O)N[C@@H](Cc1c[nH]c2ccccc12)C(=O)NCCO [compound 3786] (For-VGA[dT]A[dV]V[dV]W[dL]W[dL]W[dL]W-NHCH2CH2OH) | 100 | - | 1.18 |
| CC(C)C[C@@H](NC(=O)[C@H](C)NC(=O)[C@H](NC(=O)[C@H](C)NC(=O)CNC(=O)[C@@H](NC=O)C(C)C)C(C)C)C(=O)N[C@H](C(=O)N[C@H](CC(C)C)C(=O)N[C@@H](Cc1c[nH]c2ccccc12)C(=O)N[C@H](CC(C)C)C(=O)N[C@@H](Cc1c[nH]c2ccccc12)C(=O)N[C@@H](C(=O)N[C@@H](Cc1c[nH]c2ccccc12)C(=O)N[C@@H](C(=O)N[C@@H](Cc1c[nH]c2ccccc12)C(=O)NCCO)[C@H](C)O)C(C)C)C(C)C [compound 3828] (For-VGA[dV]A[dL]V[dL]W[dL]W[dV]W[dT]W-NHCH2CH2OH) | 95.2 | + | 1.02 |
| CNC(=O)C[C@@H](NC(=O)[C@H](Cc1c[nH]c2ccccc12)NC(=O)[C@@H](CC(C)C)NC(=O)[C@H](Cc1c[nH]c2ccccc12)NC(=O)[C@H](NC(=O)[C@H](Cc1c[nH]c2ccccc12)NC(=O)[C@@H](CC(C)C)NC(=O)[C@@H](NC(=O)[C@@H](CC(C)C)NC(=O)[C@H](C)NC(=O)[C@@H](CC(C)C)NC(=O)[C@H](C)NC(=O)CNC(=O)[C@@H](NC=O)C(C)C)C(C)C)C(C)C)C(=O)N[C@@H](Cc1c[nH]c2ccccc12)C(=O)NCCO [compound 3854] (For-VGA[dL]A[dL]V[dL]W[dV]W[dL]W[dD](NHMe)W-NHCH2CH2OH) | 100 | - | 1.18 |
| CC(C)C[C@@H](NC(=O)[C@H](C)NC(=O)CNC(=O)[C@@H](NC=O)C(C)C)C(=O)N[C@@H](C)C(=O)N[C@H](CC(C)C)C(=O)N[C@H](C(=O)N[C@@H](C(=O)N[C@@H](Cc1c[nH]c2ccccc12)C(=O)N[C@@H](C(=O)N[C@@H](Cc1c[nH]c2ccccc12)C(=O)N[C@H](CC(C)C)C(=O)N[C@@H](Cc1c[nH]c2ccccc12)C(=O)N[C@H](CC(C)C)C(=O)N[C@@H](Cc1c[nH]c2ccccc12)C(=O)NCCO)[C@H](C)O)[C@H](C)O)C(C)C [compound 3858] (For-VGA[dL]A[dL]V[dT]W[dT]W[dL]W[dL]W-NHCH2CH2OH) | 100 | - | 1.28 |
| CC(C)C[C@@H](NC(=O)[C@H](C)NC(=O)CNC(=O)[C@@H](NC=O)C(C)C)C(=O)N[C@@H](C)C(=O)N[C@@H](C(=O)N[C@H](C(=O)N[C@@H](C(=O)N[C@@H](Cc1c[nH]c2ccccc12)C(=O)N[C@H](CC(C)C)C(=O)N[C@@H](Cc1c[nH]c2ccccc12)C(=O)N[C@@H](C(=O)N[C@@H](Cc1c[nH]c2ccccc12)C(=O)N[C@H](CC(C)C)C(=O)N[C@@H](Cc1c[nH]c2ccccc12)C(=O)NCCO)C(C)C)C(C)C)C(C)C)C(C)C [compound 3861] (For-VGA[dL]A[dV]V[dV]W[dL]W[dV]W[dL]W-NHCH2CH2OH) | 0.1 | ++ | 1.51 |
| CNC(=O)C[C@@H](NC(=O)[C@H](Cc1c[nH]c2ccccc12)NC(=O)[C@H](NC(=O)[C@H](Cc1c[nH]c2ccccc12)NC(=O)[C@H](NC(=O)[C@H](Cc1c[nH]c2ccccc12)NC(=O)[C@@H](CC(C)C)NC(=O)[C@@H](NC(=O)[C@@H](CC(C)C)NC(=O)[C@H](C)NC(=O)[C@H](NC(=O)[C@H](C)NC(=O)CNC(=O)[C@@H](NC=O)C(C)C)C(C)C)C(C)C)C(C)C)C(C)C)C(=O)N[C@@H](Cc1c[nH]c2ccccc12)C(=O)NCCO [compound 3866] (For-VGA[dV]A[dL]V[dL]W[dV]W[dV]W[dD](NHMe)W-NHCH2CH2OH) | 100 | - | 1.31 |
| CNC(=O)C[C@@H](NC(=O)[C@H](Cc1c[nH]c2ccccc12)NC(=O)[C@H](NC(=O)[C@H](Cc1c[nH]c2ccccc12)NC(=O)[C@@H](CC(C)C)NC(=O)[C@@H](NC(=O)[C@@H](CC(C)C)NC(=O)[C@H](C)NC(=O)[C@@H](CC(C)C)NC(=O)[C@H](C)NC(=O)CNC(=O)[C@@H](NC=O)C(C)C)C(C)C)C(C)C)C(=O)N[C@@H](Cc1c[nH]c2ccccc12)C(=O)N[C@@H](C(=O)N[C@@H](Cc1c[nH]c2ccccc12)C(=O)NCCO)[C@H](C)O [compound 3885] (For-VGA[dL]A[dL]V[dL]W[dV]W[dD](NHMe)W[dT]W-NHCH2CH2OH) | 100 | - | 1.00 |
| CNC(=O)C[C@@H](NC(=O)[C@H](Cc1c[nH]c2ccccc12)NC(=O)[C@H](NC(=O)[C@H](Cc1c[nH]c2ccccc12)NC(=O)[C@@H](CC(C)C)NC(=O)[C@H](Cc1c[nH]c2ccccc12)NC(=O)[C@@H](CC(C)C)NC(=O)[C@@H](NC(=O)[C@H](NC(=O)[C@H](C)NC(=O)[C@H](NC(=O)[C@H](C)NC(=O)CNC(=O)[C@@H](NC=O)C(C)C)C(C)C)C(C)C)C(C)C)C(C)C)C(=O)N[C@@H](Cc1c[nH]c2ccccc12)C(=O)NCCO [compound 3903] (For-VGA[dV]A[dV]V[dL]W[dL]W[dV]W[dD](NHMe)W-NHCH2CH2OH) | 100 | - | 1.10 |
| CNC(=O)C[C@@H](NC(=O)[C@@H](NC(=O)[C@@H](CC(C)C)NC(=O)[C@H](C)NC(=O)[C@@H](CC(C)C)NC(=O)[C@H](C)NC(=O)CNC(=O)[C@@H](NC=O)C(C)C)C(C)C)C(=O)N[C@@H](Cc1c[nH]c2ccccc12)C(=O)N[C@@H](C(=O)N[C@@H](Cc1c[nH]c2ccccc12)C(=O)N[C@@H](C(=O)N[C@@H](Cc1c[nH]c2ccccc12)C(=O)N[C@@H](C(=O)N[C@@H](Cc1c[nH]c2ccccc12)C(=O)NCCO)C(C)C)C(C)C)C(C)C [compound 3931] (For-VGA[dL]A[dL]V[dD](NHMe)W[dV]W[dV]W[dV]W-NHCH2CH2OH) | 100 | - | 1.16 |
| CC(C)C[C@@H](NC(=O)[C@H](C)NC(=O)[C@H](NC(=O)[C@H](C)NC(=O)CNC(=O)[C@@H](NC=O)C(C)C)C(C)C)C(=O)N[C@H](C(=O)N[C@@H](C(=O)N[C@@H](Cc1c[nH]c2ccccc12)C(=O)N[C@H](CC(C)C)C(=O)N[C@@H](Cc1c[nH]c2ccccc12)C(=O)N[C@H](CC(C)C)C(=O)N[C@@H](Cc1c[nH]c2ccccc12)C(=O)N[C@H](CC(C)C)C(=O)N[C@@H](Cc1c[nH]c2ccccc12)C(=O)NCCO)[C@H](C)O)C(C)C [compound 3956] (For-VGA[dV]A[dL]V[dT]W[dL]W[dL]W[dL]W-NHCH2CH2OH) | 100 | + | 1.12 |
| CNC(=O)C[C@@H](NC(=O)[C@@H](NC(=O)[C@H](NC(=O)[C@H](C)NC(=O)[C@@H](CC(C)C)NC(=O)[C@H](C)NC(=O)CNC(=O)[C@@H](NC=O)C(C)C)C(C)C)C(C)C)C(=O)N[C@@H](Cc1c[nH]c2ccccc12)C(=O)N[C@H](CC(C)C)C(=O)N[C@@H](Cc1c[nH]c2ccccc12)C(=O)N[C@H](CC(C)C)C(=O)N[C@@H](Cc1c[nH]c2ccccc12)C(=O)N[C@H](CC(C)C)C(=O)N[C@@H](Cc1c[nH]c2ccccc12)C(=O)NCCO [compound 4143] (For-VGA[dL]A[dV]V[dD](NHMe)W[dL]W[dL]W[dL]W-NHCH2CH2OH) | 100 | - | 1.22 |
| CNC(=O)C[C@@H](NC(=O)[C@@H](NC(=O)[C@@H](CC(C)C)NC(=O)[C@H](C)NC(=O)[C@@H](CC(C)C)NC(=O)[C@H](C)NC(=O)CNC(=O)[C@@H](NC=O)C(C)C)C(C)C)C(=O)N[C@@H](Cc1c[nH]c2ccccc12)C(=O)N[C@H](CC(C)C)C(=O)N[C@@H](Cc1c[nH]c2ccccc12)C(=O)N[C@H](CC(C)C)C(=O)N[C@@H](Cc1c[nH]c2ccccc12)C(=O)N[C@@H](C(=O)N[C@@H](Cc1c[nH]c2ccccc12)C(=O)NCCO)C(C)C [compound 4186] (For-VGA[dL]A[dL]V[dD](NHMe)W[dL]W[dL]W[dV]W-NHCH2CH2OH) | 98.7 | - | 1.44 |
